{"source": "patent US10137135B2", "about": "“Formulations and methods for providing progestin-only contraception while minimizing adverse side effects associated therewith” (Allergan Sales, LLC, priority 2005, dated 2018)", "origin": "cited, not measured here", "test_system": "ovulation", "conditions": "subdermal implants of NEA"}
{"smiles": "C#C[C@]1(OC(C)=O)CC[C@H]2[C@@H]3CCC4=CC(=O)CC[C@@H]4[C@H]3CC[C@@]21C", "note": "[NEA, norethindrone acetate]", "values": [{"measurement": "NE levels thought to be required to consistently inhibit ovulation", "result": 600, "unit": "pg/mL"}]}
